Tests used:
various tumor cell lines = experiment: Present method: tumor cells in implanted encapsulation device, response to antitumor agents; assay type: in vivo
Source text: The present method can be utilized as a first line screen to test potential drug candidates for in vivo efficacy.

p21^WAF1/Clp1 promoter = experiment: Hollow fiber p21^WAF1/Clp1 promoter-luciferase reporter assay: light emission from Fibers with H1299C2 cells retrieved from dosed mice; assay type: in vivo, mouse (mouse (human H1299C2 cells in hollow fibers) H1299C2 cells in hollow fibers); details: H1299C2 cells in hollow fibers implanted s.c. in athymic nude mice; single intravenous dose 50, 25 or 12.5 mg/kg; Fibers retrieved 24 hours after dosing; p<0.01, one tailed Student t-test
Description: A human lung cancer cell line, H1299, is obtained from the American Type Culture Collection, ATCC, Rockville, Md.) and cultured in the RPMI 1640 medium supplemented with 10% heat-inactivated Fetal Bovine Serum (Life Technologies, Grand Island, N.Y.). Cells harvested at approx. 85% confluency are washed with ice cold phosphate buffered saline (PBS) and suspended in the ice cold PBS at a concentration of 2×10^7 cells/mL. One half of one mL of the cell suspension is used for transfection with 10 μg of p21^WAF1/Clp1 luciferase plasmid and NeotetR selectable marker. Transfection is performed by electroporation at […]. Cells are then plated in the above medium containing 0.4 mg/mL G-418 (Life Technologies, Grand Island, N.Y.). One colony is selected, diluted to one cell/well and a single clone is expanded to generate p21^WAF1/Clp1 promoter-luciferase stable cell line designated H1299C2. The cell line tests negative for Mycoplasma contamination (Rapid Detection System by Gen-Probe, Inc., San Diego, Calif.) and for Mouse Antibody Production (MA BioServices, Inc., Rockville, Md.).
The H1299C2 cell line is propagated and expanded for implantation in RPMI 1640 medium containing 10% heat-inactivated Fetal Bovine Serum (Life Technologies, Grand Island, N.Y.) in a cell culture incubator, at 37° C. with humidified atmosphere, containing 5% CO2. […]

| Structure (SMILES) | activity when tested on various tumor cell lines with the present method (various tumor cell lines) | expression of the reporter gene (firefly luciferase) in vivo as judged by registered light emission from the Fibers (p21^WAF1/Clp1 promoter) |
| --- | --- | --- |
| COc1cccc2c1C(=O)c1c(O)c3c(c(O)c1C2=O)C[C@@](O)(C(=O)CO)C[C@@H]3O[C@H]1C[C@H](N)[C@H](O)[C@H](C)O1 [doxorubicin] | significant activity |  |
| CC(=O)O[C@H]1C(=O)[C@@]2(C)[C@H]([C@H](OC(=O)c3ccccc3)[C@]3(O)C[C@H](OC(=O)[C@H](O)[C@@H](NC(=O)c4ccccc4)c4ccccc4)C(C)=C1C3(C)C)[C@]1(OC(C)=O)CO[C@@H]1C[C@@H]2O [paclitaxel] | significant activity |  |
| CO[C@@]12[C@H](COC(N)=O)C3=C(C(=O)C(C)=C(N)C3=O)N1C[C@@H]1N[C@@H]12 [mitomycin C] | significant activity |  |
| O=C(/C=C/c1ccc(CN(CCO)CCc2c[nH]c3ccccc23)cc1)NO [compound 1, N-hydroxy-3-[4-[[(2-hydroxyethyl)[2-(1H-indol-3-yl)-ethyl]-amino]methyl]phenyl]-2E-2-propenamide] |  | statistically significant (p<0.01, one tailed Student t-test) and reproducible expression of the reporter gene |
| N.N.[Cl][Pt][Cl] [cis-platinum] | significant activity |  |
| O=c1[nH]cc(F)c(=O)[nH]1 [5-fluorouracil] | significant activity |  |
| CC[C@@]1(O)C(=O)OCc2c1cc1n(c2=O)Cc2cc3ccccc3nc2-1 [camptothecin] | significant activity |  |
| CC[C@]1(O)C[C@H]2CN(CCc3c([nH]c4ccccc34)[C@@](C(=O)OC)(c3cc4c(cc3OC)N(C=O)[C@H]3[C@@](O)(C(=O)OC)[C@H](OC(C)=O)[C@]5(CC)C=CCN6CC[C@]43[C@@H]65)C2)C1 [vincristine] | significant activity |  |
| Cc1[nH]c2ccccc2c1CCNCc1ccc(/C=C/C(=O)NO)cc1 [compound 2, N-hydroxy-3-[4-[[[2-(2-methyl-1H-indol-3-yl)-ethyl]-amino]methyl]phenyl]-2E-2-propenamide] |  | statistically significant (p<0.01, one tailed Student t-test) and reproducible expression of the reporter gene |
| COc1cc([C@@H]2c3cc4c(cc3[C@@H](O[C@@H]3O[C@@H]5CO[C@@H](C)O[C@H]5[C@H](O)[C@H]3O)[C@H]3COC(=O)[C@H]23)OCO4)cc(OC)c1O [etoposide] | significant activity |  |
| O=C1c2c(O)ccc(O)c2C(=O)c2c(NCCNCCO)ccc(NCCNCCO)c21 [mitoxantrone] | significant activity |  |

Source: patent US20040067540A1, “Rapid method for screening compounds for in vivo activity” (priority 2003, published 2004)
